A short description of the test: Inhibition of N-terminal tetra-cysteine tagged LexA repressor (unknown origin) assessed as reduction in RecA-mediated autoproteolysis by measuring release of fluorophore-labeled peptide using FlAsH-EDT2 as fluorescent substrate by FlAsH-LexA assay. Further details: species or system Bacteria.
Turning to `Cc1ccc(NC(=O)Cn2nnc(C(=O)Nc3ccccc3)c2N)cc1`, the half-inhibitory concentration (IC50) stood at 107 µM.

For the compound `Nc1c(C(=O)Nc2ccccc2)nnn1CC(=O)Nc1ccc(Cl)cc1`, the IC50 was more than 250 µM.

In the case of `Nc1ccc(NC(=O)Cn2nnc(C(=O)Nc3ccccc3)c2N)cc1`, the IC50 was more than 250 µM.

Regarding `Nc1c(C(=O)Nc2ccccc2)nnn1CC(=O)NC1CCCCCC1`, the concentration for half-maximal inhibition (IC50) is more than 250 µM.

As for `CCOc1ccc(NC(=O)Cn2nnc(C(=O)Nc3ccccc3)c2N)cc1`, the half-maximal inhibitory concentration (IC50) was determined as 48 µM.

Take `Cc1ccc(/N=C2\NC(=O)C(N)=C2C(=O)Nc2ccccc2)cc1`: the IC50 is more than 250 µM.

With `COC(=O)c1ccc(NC(=O)Cn2nnc(C(=O)Nc3ccccc3)c2N)cc1`, the IC50 came out at 75 µM.

In the case of `Nc1c(C(=O)Nc2ccccc2)nnn1CC(=O)Nc1c(Cl)cc(Cl)cc1Cl`, the IC50 is more than 250 µM.

Regarding `Nc1c(C(=O)Nc2ccccc2)nnn1CC(=O)Nc1ccc(O)cc1`, the IC50 is more than 250 µM.

Regarding `Nc1c(C(=O)Nc2ccccc2)nnn1CC(=O)Nc1ccc(C(=O)C(F)(F)F)cc1`, the IC50 is more than 250 µM.

For the compound `Cc1ccc(NC(=O)Cn2nnc(C(=O)Nc3ccccc3)c2N)c(C)c1`, the half-maximal inhibitory concentration (IC50) was more than 250 µM.

As to `Cc1ccccc1NC(=O)Cn1nnc(C(=O)Nc2ccccc2)c1N`, the IC50 was more than 250 µM.

These data come from ChEMBL document CHEMBL5143648, “Exploration of inhibitors of the bacterial LexA repressor-protease” (Bioorg Med Chem Lett, 2022).
